Test results published in ChEMBL document CHEMBL1201862, “PubChem BioAssay data set” (2004).
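All cell lines were grown in 96-well plates and treated with compound for 48 hours. GI50 marks 50% less growth.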 Active and inactive are the calls of the source. Cut-off read from the data, not from the text of the source: active = GI50 up to about 1.1 µM and inactive = higher.

Key:
Assay in all cases: NCI tumour cell line growth inhibition, 48 h
[1] = tested on: 786-0
[2] = tested on: A498
[3] = tested on: A549
[4] = tested on: ACHN
[5] = tested on: BT-549
[6] = tested on: CAKI-1
[7] = tested on: CCRF-CEM
[8] = tested on: COLO 205
[9] = tested on: DU-145
[10] = tested on: EKVX
[11] = tested on: HCC 2998
[12] = tested on: HCT-116
[13] = tested on: HCT-15
[14] = tested on: HOP-62
[15] = tested on: HOP-92
[16] = tested on: HT-29
[17] = tested on: Hs-578T
[18] = tested on: IGROV-1
[19] = tested on: K562
[20] = tested on: KM12
[21] = tested on: LOX IMVI
[22] = tested on: M14
[23] = tested on: MCF7
[24] = tested on: MDA-MB-231
[25] = tested on: MDA-MB-435
[26] = tested on: MDA-N
[27] = tested on: MOLT-4
[28] = tested on: Malme-3M
[29] = tested on: NCI-H226
[30] = tested on: NCI-H23
[31] = tested on: NCI-H460
[32] = tested on: NCI-H522
[33] = tested on: NCI/ADR-RES
[34] = tested on: OVCAR-3
[35] = tested on: OVCAR-4
[36] = tested on: OVCAR-5
[37] = tested on: OVCAR-8
[38] = tested on: PC-3
[39] = tested on: RPMI-8226
[40] = tested on: SF-268
[41] = tested on: SF-295
[42] = tested on: SF-539
[43] = tested on: SK-MEL-28
[44] = tested on: SK-MEL-2
[45] = tested on: SK-MEL-5
[46] = tested on: SN12C
[47] = tested on: SNB-19
[48] = tested on: SNB-75
[49] = tested on: SR
[50] = tested on: SW-620
[51] = tested on: TK-10
[52] = tested on: U-251
[53] = tested on: UACC-257
[54] = tested on: UACC-62
[55] = tested on: UO-31
[56] = tested on: HL-60
[57] = tested on: RXF 393
[58] = tested on: SK-OV-3
[59] = tested on: T47D

SMILES: CC1CCCOc2ccc(cc2)/C=N\c2ccc(cc2)CCc2ccc(cc2)/N=C\c2ccc(cc2)OCCC1
- GI50 [1]: > 100 µM (inactive)
- GI50 [2]: > 100 µM (inactive)
- GI50 [3]: > 100 µM (inactive)
- GI50 [4]: > 100 µM (inactive)
- GI50 [5]: > 100 µM (inactive)
- GI50 [6]: > 100 µM (inactive)
- GI50 [7]: > 100 µM (inactive)
- GI50 [8]: > 100 µM (inactive)
- GI50 [9]: > 100 µM (inactive)
- GI50 [10]: > 100 µM (inactive)
- GI50 [11]: > 100 µM (inactive)
- GI50 [12]: > 100 µM (inactive)
- GI50 [13]: > 100 µM
- GI50 [14]: > 100 µM (inactive)
- GI50 [15]: > 100 µM (inactive)
- GI50 [16]: > 100 µM (inactive)
- GI50 [17]: > 100 µM (inactive)
- GI50 [18]: > 100 µM (inactive)
- GI50 [19]: > 100 µM (inactive)
- GI50 [20]: > 100 µM (inactive)
- GI50 [21]: > 100 µM (inactive)
- GI50 [22]: > 100 µM (inactive)
- GI50 [23]: > 100 µM (inactive)
- GI50 [24]: > 100 µM (inactive)
- GI50 [25]: > 100 µM (inactive)
- GI50 [26]: > 100 µM (inactive)
- GI50 [27]: > 100 µM (inactive)
- GI50 [28]: > 100 µM (inactive)
- GI50 [29]: > 100 µM (inactive)
- GI50 [30]: > 100 µM (inactive)
- GI50 [31]: > 100 µM (inactive)
- GI50 [32]: > 100 µM (inactive)
- GI50 [33]: > 100 µM (inactive)
- GI50 [34]: > 100 µM (inactive)
- GI50 [35]: > 100 µM (inactive)
- GI50 [36]: > 100 µM (inactive)
- GI50 [37]: > 100 µM (inactive)
- GI50 [38]: > 100 µM (inactive)
- GI50 [39]: > 100 µM (inactive)
- GI50 [40]: > 100 µM (inactive)
- GI50 [41]: > 100 µM (inactive)
- GI50 [42]: > 100 µM (inactive)
- GI50 [43]: > 100 µM (inactive)
- GI50 [44]: > 100 µM (inactive)
- GI50 [45]: > 100 µM (inactive)
- GI50 [46]: > 100 µM (inactive)
- GI50 [47]: > 100 µM (inactive)
- GI50 [48]: > 100 µM (inactive)
- GI50 [49]: > 100 µM (inactive)
- GI50 [50]: > 100 µM (inactive)
- GI50 [51]: > 100 µM (inactive)
- GI50 [52]: > 100 µM (inactive)
- GI50 [53]: > 100 µM (inactive)
- GI50 [54]: > 100 µM (inactive)
- GI50 [55]: > 100 µM (inactive)

SMILES: O=C(NCCCN(CCCCN(CCCNC(=O)C(F)(F)F)CCCc1ccccc1)CCCc1ccccc1)C(F)(F)F
- GI50 [1]: 1.25 µM (inactive)
- GI50 [2]: 2.21 µM (inactive)
- GI50 [3]: 1.82 µM (inactive)
- GI50 [4]: 2 µM (inactive)
- GI50 [5]: 2.68 µM (inactive)
- GI50 [6]: 1.94 µM (inactive)
- GI50 [7]: 4.63 µM (inactive)
- GI50 [8]: 1.56 µM (inactive)
- GI50 [9]: 2 µM (inactive)
- GI50 [10]: 1.68 µM (inactive)
- GI50 [11]: 1.78 µM (inactive)
- GI50 [12]: 2.47 µM (inactive)
- GI50 [13]: 1.44 µM
- GI50 [56]: 2.93 µM (inactive)
- GI50 [15]: 1.62 µM (inactive)
- GI50 [16]: 1.55 µM (inactive)
- GI50 [17]: 2.02 µM (inactive)
- GI50 [18]: 1.83 µM (inactive)
- GI50 [19]: 2.87 µM (inactive)
- GI50 [20]: 1.95 µM (inactive)
- GI50 [21]: 1.85 µM (inactive)
- GI50 [22]: 1.76 µM (inactive)
- GI50 [23]: 1.48 µM (inactive)
- GI50 [24]: 1.63 µM (inactive)
- GI50 [25]: 1.76 µM (inactive)
- GI50 [26]: 1.65 µM (inactive)
- GI50 [27]: 1.8 µM (inactive)
- GI50 [28]: 1.75 µM (inactive)
- GI50 [29]: 10.4 µM (inactive)
- GI50 [30]: 12.7 µM (inactive)
- GI50 [31]: 1.87 µM (inactive)
- GI50 [32]: 1.78 µM (inactive)
- GI50 [33]: 3.45 µM (inactive)
- GI50 [35]: 5.78 µM (inactive)
- GI50 [36]: 12.8 µM (inactive)
- GI50 [37]: 1.74 µM (inactive)
- GI50 [39]: 2.63 µM (inactive)
- GI50 [57]: 1.3 µM (inactive)
- GI50 [40]: 1.63 µM (inactive)
- GI50 [41]: 1.81 µM (inactive)
- GI50 [42]: 1.57 µM (inactive)
- GI50 [43]: 1.64 µM (inactive)
- GI50 [45]: 1.69 µM (inactive)
- GI50 [58]: 2.49 µM (inactive)
- GI50 [46]: 2.08 µM (inactive)
- GI50 [47]: 2 µM (inactive)
- GI50 [48]: 1.12 µM (active)
- GI50 [50]: 1.98 µM (inactive)
- GI50 [59]: 1.85 µM (inactive)
- GI50 [51]: 1.91 µM (inactive)
- GI50 [52]: 1.6 µM (inactive)
- GI50 [53]: 1.71 µM (inactive)
- GI50 [54]: 1.8 µM (inactive)
- GI50 [55]: 1.26 µM (inactive)
